Measurements: US20110034427A1, “Anti-aging properties of quercetin, 18alpha-glycyrrhetinic acid and hederagenin and their derivatives” (priority 2009, published 2011)
Entries after “also recorded” stand apart in the source; their conditions may differ.

Experiments:
[1] = tested on: HFL-1 human diploid fibroblasts; test: Lifespan (cumulative population doublings) and morphology of human diploid fibroblasts under continuous treatment; format: cell-based; settings: for appearance of the senescent phenotype (conclusion): continuous treatment, morphology, shape, β-galactosidase positive cells
Description: 1.1. HFL-1 human diploid fibroblasts (HDFs) were used in in vitro conditions (growth at 37° C., 5% CO2 and 95% humidity).
1.2. The cells were maintained in Dulbecco's modified Eagle's medium (DMEM®; Invitrogen Life Technologies Inc.) supplemented with 10% (v/v) fetal calf serum, 100 Units/ma penicillin, 100 μg/ml strepromycin, 2 mM glutamine and 1% (v/v) non-essential amino acids (complete medium).
1.3. The cells were constantly cultured in culture medium supplemented with the substances [final concentration for quercetin (QUER), 18α-glycyrrhetinic acid (18α GA), and hederagenin (HED): 2 μg/ml and for quercetin caprylate (QU-CAP) three concentrations were applied: 0.5, 2 and 5 μg/ml]. Quercetin, 18α-glycyrrhetinic acid and hederagenin were diluted in DMSO (dimethyl sulfoxide) whereas quercetin caprylate was diluted in caprilic/capric triglycerides (CAP). Therefore, the control cultures were incubated in medium supplemented with 0.1% DMSO or 0.1% CAP.
1.4. The cells were replenished with fresh media supplemented with the substances or the diluents every 24 h and their numbers were examined using a Coulter Z2® counter (Coulter Corporation) until they reached senescence (approximately after 13 weeks). The cumulative population doublings performed by each culture were calculated using the following formula: CPD=Σ[PD] where PD=LOG [Nfinal/Ninitial]/LOG [2], where N final represents the number of cells that were measured when each culture reached confluence and N initial represents the number of cells that was initially seeded.
1.5. Photographs of the cells maintained in cell culture and treated with the various substances for the same time period were taken.
1.6. […] More specifically, cells that were incubated with quercetin caprylate gave up to 2.8% more population doublings as compared to the population doublings performed by the relative control cultures. Cells that were incubated with the other substances gave up to 2.9% more population doublings as compared to their relative control cultures.
1.7. […] Cells that were treated with either of the tested substances maintained the young morphology for longer as compared to the control cultures (DMSO-treated and CAP-treated).

[2] = tested on: middle aged and terminally senescent HFL-1 HDFs; test: Reversal of senescent phenotype in middle aged and terminally senescent cells; format: cell-based, human; settings: for proliferation of middle aged cells (FIG. 3A): middle aged HFL-1 (cpd 59), QUER, 18α GA 2 μg/ml, QU-CAP 0.5, 2 and 5 μg/ml; for proliferation of middle aged cells (FIG. 3A) / proliferation of terminally senescent cells (FIG. 3B): 1 week; for morphology of middle aged cells (FIG. 4A) / β-galactosidase activity staining of middle aged cells (FIG. 4A): middle aged HFL-1, 1 week; for β-galactosidase activity staining of middle aged cells (FIG. 4A): QU-CAP all three concentrations; for reversal of the senescent phenotype / rejuvenation effect (conclusion): middle aged cells or terminally senescent cells; for proliferation of terminally senescent cells (FIG. 3B): terminally senescent HFL-1 (cpd 65), QUER 2 μg/ml, QU-CAP 2 and 5 μg/ml; for morphology of terminally senescent cells (FIG. 4B) / β-galactosidase activity of terminally senescent cells (FIG. 4B): terminally senescent HFL-1, 1 week, QU-CAP higher concentrations
Description: 3.1. HFL-1 HDFs that have senesced in vitro were used (growth at 37° C., 5% CO2 and 95% humidity). More specifically, middle aged HFL-1 HDFs (cpd 59) and terminally senescent HFL-1 HDFs (cpd 65) that had senesced in the absence of any substance were used.
3.2. The cells were seeded and maintained in complete medium (see 1.2). Culture medium supplemented with the substances [final concentration for quercetin (QUER), 18α-glycyrrhetinic acid (18α GA), and hederagenin (HED): 2 μg/ml and for quercetin caprylate (QU-CAP) three concentrations were applied: 0.5, 2 and 5 μg/ml] or the diluents (0.1% DMSO or 0.1% CAP) were added 24 h later. The cells were replenished with fresh media supplemented with the substances or the diluents every 24 h for 1 week and their numbers were then examined using a Coulter Z2® counter (Coulter Corporation).
3.3. Detection of β-galactosidase activity was performed in these cells as described above and photographs of the cells following β-galactosidase activity assay were taken.

[3] = tested on: HFL-1 HDFs; test: Levels of oxidized proteins (OxyBlot analysis); format: cell-based, human; settings: HFL-1, 24 h treatment; vs control
Description: 4.1. HFL-1 HDFs were cultured as described in 1.1-1.4. Cells treated with the substances for 24 h and were then lysed and proteins were extracted and subjected to SDS-PAGE (sodium dodecylsulfate polyacrylamide gel electrophorese) followed by OxyBlot analysis that detects the carbonylated groups on proteins. OxyBlot™ is a protein oxidation detection kit.
4.2. […] However it is worth mentioning that OxyBlot analysis detects only carbonylated groups on proteins which is just one oxidative stress-mediated post-translational protein modification.

[4] = tested on: HFL-1 HDFs; test: Cellular survival with or without oxidative stress; format: cell-based, human; settings: for survival to an oxidative stress challenge (conclusion): vs control cells
Description: 6.1. HFL-1 HDFs were cultured as described in 5.1. Following the incubation with the various substances cells were collected and counted using a Coulter Z2® counter (Coulter Corporation). In replica cultures, culture medium supplemented with the substances as described above were also supplemented with 300 μM H2O2 for 2.5 h. The cells were then thoroughly washed with PBS, supplemented with complete medium containing the examined substances and maintained in culture for additional 24 h. They were then collected and counted using a Coulter Z2® counter (Coulter Corporation).

[5] = tested on: proteasome subunits (β5, α7); test: Levels of proteasome subunits (immunoblot); format: cell-based, human; settings: HFL-1, 24 h treatment
Description: 8.1. HFL-1 HDFs were cultured as described in 5.1. Following the incubation with the various substances for 24 h, cells were collected, lysed and proteins were extracted and subjected to SDS-PAGE followed by immunoblot analysis against different proteasome subunits. Protein concentrations were determined using the Bradford method with BSA as a standard.
8.2. […] In total, the increased amount of proteasome subunits expression levels provide an explanation regarding the increased proteasome activities recorded in these cells.

[6] = tested on: tyrosinase; test: Tyrosinase expression (immunoblot); format: cell-based, mouse; settings: for protein levels of tyrosinase (FIG. 11): mouse melanocytes, 72 h; for protein expression levels of tyrosinase (conclusion): concentration not given
Description: B.1. Mouse melanocytes were cultured as described in A.1.-A.3. After 72 h of treatment, the cells were collected, lysed and proteins were extracted and subjected to SDS-PAGE followed by immunoblot analysis against tyrosinase. Protein concentrations were determined using the Bradford method with BSA as a standard.

[7] = tested on: Mouse melanocytes (B10F16 cell line); test: Cellular whitening of melanocytes (cell pellet); format: cell-based; settings: for whitening of melanocytes (conclusion): concentration not given; for whitening of melanocyte pellet (FIG. 10): 72 h
Description: A.1. Mouse melanocytes (B10F16 cell line) were used in in vitro conditions (growth at 37° C., 5% CO2 and 95% humidity).
A.2. The cells were maintained in Dulbecco's modified Eagle's medium (DMEM®; Invitrogen Life Technologies Inc.) supplemented with 10% (v/v) fetal calf serum, 100 Units/ma penicillin, 100 μg/ml strepromycin, 2 mM glutamine and 1% (v/v) non-essential amino acids (complete medium).
A.3. 10^5 cells were seeded in petri dishes and the following day they were fed with medium supplemented with the substances [final concentration for all substances: 5 μg/ml and 10 μg/ml]. Quercetin (QUER), 18α-glycyrrhetinic acid (18α GA) and hederagenin (HED) were diluted in DMSO whereas quercetin caprylate was diluted in caprilic/capric triglycerides (CAP). Therefore, the control cultures were incubated in medium supplemented with 0.1% DMSO or 0.1% CAP. The media were replenished every 24 h and the cells were kept under these conditions constantly for 72 h. Cells were then collected and pelleted and the cell pellet was photographed.
A.4. […] The result was positively correlated to the concentration of quercetin used.

| Molecule | more population doublings as compared to the relative control cultures ([1]; HFL-1, continuous treatment about 13 weeks, QU-CAP 0.5, 2 and 5 μg/ml, others 2 μg/ml, vs 0.1% DMSO or 0.1% CAP) | appearance of the senescent phenotype (conclusion) [1] | proliferation of middle aged cells (FIG. 3A) [2] | morphology of middle aged cells (FIG. 4A) [2] | β-galactosidase activity staining of middle aged cells (FIG. 4A) [2] | reversal of the senescent phenotype / rejuvenation effect (conclusion) [2] | proliferation of terminally senescent cells (FIG. 3B) [2] | morphology of terminally senescent cells (FIG. 4B) [2] | β-galactosidase activity of terminally senescent cells (FIG. 4B) [2] | levels of oxidized (carbonylated) proteins (FIG. 5) [3] | survival to an oxidative stress challenge (conclusion) [4] | protein levels of proteasome subunits β5 and α7 (FIG. 9) [5] | protein levels of tyrosinase (FIG. 11) ([6]; 5 and 10 μg/ml) | whitening of melanocytes (conclusion) [7] | whitening of melanocyte pellet (FIG. 10) ([7]; lower concentration (5 μg/ml)) | protein expression levels of tyrosinase (conclusion) [6] | protein levels of tyrosinase (FIG. 11) ([6]; high concentration) | higher survival rate after oxidative stress as compared to control cultures ([4]; 300 μM H2O2 for 2.5 h, then additional 24 h in culture) | higher survival rate as compared to diluent-treated cells ([4]; 24 h treatment, without oxidative stress) | whitening of melanocyte pellet (FIG. 10) ([7]; both concentrations (5 and 10 μg/ml)) |
| --- | --- | --- | --- | --- | --- | --- | --- | --- | --- | --- | --- | --- | --- | --- | --- | --- | --- | --- | --- | --- |
| Quercetin caprylate | up to 2.8% | delay in the appearance of the senescent phenotype | higher proliferation rates | acquired a morphology more similar to the one exhibited by young cells | less positive to β-galactosidase activity staining | regained a younger morphology and were induced to limited but significant proliferation | limited but significant cell proliferation | acquired a morphology that exhibits more similarities with the morphology of young fibroblasts | many of those cells were negative for β-galactosidase activity | lower amounts of oxidized proteins; also recorded: less oxidized proteins | survived better | elevated protein levels | reduced protein levels of tyrosinase |  |  |  |  |  |  |  |
| CC1(C)CC[C@]2(C(=O)O)CC[C@]3(C)C(=CC[C@@H]4[C@@]5(C)CC[C@H](O)[C@@](C)(CO)[C@@H]5CC[C@]43C)[C@@H]2C1 [hederagenin, Hederagenin] |  |  |  |  |  |  |  |  |  |  |  | did not detect any up-regulation |  | revealed whitening potential | revealed whitening potential | decrease of the protein expression levels of tyrosinase | reduced protein levels of tyrosinase |  |  |  |
| CC1(C)[C@@H](O)CC[C@]2(C)[C@H]3C(=O)C=C4[C@H]5C[C@@](C)(C(=O)O)CC[C@]5(C)CC[C@@]4(C)[C@]3(C)CC[C@@H]12 [18α-glycyrrhetinic acid] |  | delay in the appearance of the senescent phenotype | higher proliferation rates | acquired a morphology more similar to the one exhibited by young cells | less positive to β-galactosidase activity staining | regained a younger morphology and were induced to limited but significant proliferation |  |  |  | lower amounts of oxidized proteins; also recorded: slightly lower levels | survived better | similar |  | revealed whitening potential | revealed whitening potential | decrease of the protein expression levels of tyrosinase |  | 2% | 3.5% |  |
| O=c1c(O)c(-c2ccc(O)c(O)c2)oc2cc(O)cc(O)c12 [quercetin, Quercetin] |  | delay in the appearance of the senescent phenotype | higher proliferation rates | acquired a morphology more similar to the one exhibited by young cells | less positive to β-galactosidase activity staining | regained a younger morphology and were induced to limited but significant proliferation | limited but significant cell proliferation | acquired a morphology that exhibits more similarities with the morphology of young fibroblasts | many of those cells were negative for β-galactosidase activity |  | survived better | elevated protein levels | reduced protein levels of tyrosinase | revealed whitening potential |  | decrease of the protein expression levels of tyrosinase |  |  |  | revealed whitening potential |
